Results: US20210189342A1, “COMPOSITIONS AND METHODS FOR MODULATING MONOCYTE AND MACROPHAGE INFLAMMATORY PHENOTYPES AND IMMUNOTHERAPY USES THEREOF” (Verseau Therapeutics, Inc., priority 2018, published 2021)

system: SIGLEC9; test: siRNA dose response, SIGLEC9 mRNA knockdown, Dual-Glo Luciferase Assay; type: cell-based, human; details: Hepa1-6 + reporter plasmid, 24 hr
Description: (§1) Dose response curves for siRNAs were generated in vitro using a variety of cell lines according to Table 4.
(§2) Briefly, cells were seeded in 96-well plates and reverse transfected with siRNA, Lipofectamine® 2000 (0.5 uL/well; ThermoFisher), and, in some cases, a reporter plasmid (50 ng/well). The reporter plasmid (psiCHECK™-2, Promega) encoded both firefly luciferase and the gene of interest fused to renilla luciferase; silencing of the gene of interest results in proportional silencing of renilla luciferase but leaves firefly luciferase unaffected as an internal control.
(§3) After 24 hr incubation at 37° C., mRNA knockdown was measured using an endpoint assay. For targets without a reporter plasmid, a branched DNA (bDNA) assay was performed according to the manufacturer's instructions (QuantiGene® Singleplex Gene Expression Assay, ThermoFisher) to measure both the target gene and GAPDH (housekeeping gene) mRNA. Data are plotted as siRNA concentration (nM) vs. remaining mRNA (ratio of target gene to GAPDH, normalized to mock siRNA-transfected cells). For targets with a reporter plasmid, a Dual-Glo® Luciferase Assay was performed according to the manufacturer's instructions (Promega) to measure firefly and renilla luciferase expression. Data are plotted as siRNA concentration (nM) vs. remaining mRNA (ratio of renilla to firefly luminescence, normalized to mock siRNA-transfected cells).
(§4) For all dose response curves, a 4-parameter logistic model was applied to determine the IC50 of each siRNA sequence (Table 5 and FIG. 2). Data shown in Table 5 and FIG. 2 represent the mean of quadruplicates, +/−standard deviation.

| Substance | IC50 [nM] |
| --- | --- |
| XD-09180: siRNA targeting SIGLEC9 (sense 5'-acAAGuAAAcuGcuGacGAdTsdT-3'; antisense 5'-UCGUcAGcAGUUuACUUGUdTsdT-3'; RNA with 2'-O-methyl and phosphorothioate modifications, case key not given here, as printed in the source, key not given here) | 0.04 |
| XD-09181: siRNA targeting SIGLEC9 (sense 5'-guAAAcuGcuGAcgAuGcAdTsdT-3'; antisense 5'-UGcAUCGUcAGcAGUUuACdTsdT-3'; RNA with 2'-O-methyl and phosphorothioate modifications, case key not given here, as printed in the source, key not given here) | 0.286 |
| XD-09182: siRNA targeting SIGLEC9 (sense 5'-ucGcAuGGcuGGAuuuAccdTsdT-3'; antisense 5'-GGuAAAUCcAGCcAUGCGAdTsdT-3'; RNA with 2'-O-methyl and phosphorothioate modifications, case key not given here, as printed in the source, key not given here) | 0.837 |
| XD-09183: siRNA targeting SIGLEC9 (sense 5'-guuccGGGAAGGGgccAAudTsdT-3'; antisense 5'-AUUGGCCCCUUCCCGGAACdTsdT-3'; RNA with 2'-O-methyl and phosphorothioate modifications, case key not given here, as printed in the source, key not given here) | 0.229 |
| XD-09184: siRNA targeting SIGLEC9 (sense 5'-ggGccAAuAcAGAccAGGAdTsdT-3'; antisense 5'-UCCUGGUCUGuAUUGGCCCdTsdT-3'; RNA with 2'-O-methyl and phosphorothioate modifications, case key not given here, as printed in the source, key not given here) | 0.127 |
| XD-09185: siRNA targeting SIGLEC9 (sense 5'-ccAGAAGAAGuGAuGcGGGdTsdT-3'; antisense 5'-CCCGcAUcACUUCUUCUGGdTsdT-3'; RNA with 2'-O-methyl and phosphorothioate modifications, case key not given here, as printed in the source, key not given here) | 0.094 |
| XD-09186: siRNA targeting SIGLEC9 (sense 5'-ucAccGGcucucuguGAAudTsdT-3'; antisense 5'-AUUcAcAGAGAGCCGGUGAdTsdT-3'; RNA with 2'-O-methyl and phosphorothioate modifications, case key not given here, as printed in the source, key not given here) | 0.488 |
| XD-09187: siRNA targeting SIGLEC9 (sense 5'-gaccAcGaacAAGaccGucdTsdT-3'; antisense 5'-GACGGUCUUGUUCGUGGUCdTsdT-3'; RNA with 2'-O-methyl and phosphorothioate modifications, case key not given here, as printed in the source, key not given here) | 0.406 |
| XD-09188: siRNA targeting SIGLEC9 (sense 5'-gaAcAAGAccGuccAucucdTsdT-3'; antisense 5'-GAGAUGGACGGUCUUGUUCdTsdT-3'; RNA with 2'-O-methyl and phosphorothioate modifications, case key not given here, as printed in the source, key not given here) | 0.148 |
| XD-09189: siRNA targeting SIGLEC9 (sense 5'-agAccGuccAucucAAcGudTsdT-3'; antisense 5'-ACGUUGAGAUGGACGGUCUdTsdT-3'; RNA with 2'-O-methyl and phosphorothioate modifications, case key not given here, as printed in the source, key not given here) | 0.694 |
| XD-09190: siRNA targeting SIGLEC9 (sense 5'-ccGuccAucucAAcGuGucdTsdT-3'; antisense 5'-GAcACGUUGAGAUGGACGGdTsdT-3'; RNA with 2'-O-methyl and phosphorothioate modifications, case key not given here, as printed in the source, key not given here) | 0.905 |
| XD-09192: siRNA targeting SIGLEC9 (sense 5'-caGuAuccAcAGucuuGGGdTsdT-3'; antisense 5'-CCcAAGACUGUGGAuACUGdTsdT-3'; RNA with 2'-O-methyl and phosphorothioate modifications, case key not given here, as printed in the source, key not given here) | 0.236 |
| XD-09193: siRNA targeting SIGLEC9 (sense 5'-guAuccAcAGucuuGGGAAdTsdT-3'; antisense 5'-UUCCcAAGACUGUGGAuACdTsdT-3'; RNA with 2'-O-methyl and phosphorothioate modifications, case key not given here, as printed in the source, key not given here) | 0.459 |
| XD-09194: siRNA targeting SIGLEC9 (sense 5'-cucAGcAGGucuAccuGAAdTsdT-3'; antisense 5'-UUcAGGuAGACCUGCUGAGdTsdT-3'; RNA with 2'-O-methyl and phosphorothioate modifications, case key not given here, as printed in the source, key not given here) | 5.63 |
| XD-09195: siRNA targeting SIGLEC9 (sense 5'-gcGuGGGAGAuAcgGGcAudTsdT-3'; antisense 5'-AUGCCCGuAUCUCCcACGCdTsdT-3'; as printed in the source, key not given here) | 0.125 |
| XD-09197: siRNA targeting SIGLEC9 (sense 5'-ggAGAuAcGGGcAuAGAGGdTsdT-3'; antisense 5'-CCUCuAUGCCCGuAUCUCCdTsdT-3'; as printed in the source, key not given here) | 0.851 |

system: CD84; test: siRNA dose response, CD84 mRNA knockdown, Dual-Glo Luciferase Assay; type: cell-based, human; details: Hepa1-6 + reporter plasmid, 24 hr
Description: as §1, §2, §3, §4

| Substance | IC50 [nM] |
| --- | --- |
| XD-09610: siRNA targeting CD84 (sense 5'-accAAAAAuuAcAcAGAGudTsdT-3'; antisense 5'-ACUCUGUGuAAUUUUUGGUdTsdT-3'; as printed in the source, key not given here) | 0.047 |
| XD-09611: siRNA targeting CD84 (sense 5'-gaGGGuAAuGuccuucAAAdTsdT-3'; antisense 5'-UUUGAAGGAcAUuACCCUCdTsdT-3'; as printed in the source, key not given here) | 0.082 |
| XD-09612: siRNA targeting CD84 (sense 5'-gguAAuGuccuucaAAucudTsdT-3'; antisense 5'-AGAUUUGAAGGAcAUuACCdTsdT-3'; as printed in the source, key not given here) | 0.351 |
| XD-09613: siRNA targeting CD84 (sense 5'-ucAuAuGAucAuuuAAGGAdTsdT-3'; antisense 5'-UCCUuAAAUGAUcAuAUGAdTsdT-3'; RNA with 2'-O-methyl and phosphorothioate modifications, case key not given here, as printed in the source, key not given here) | 0.241 |
| XD-09614: siRNA targeting CD84 (sense 5'-gaAcAcAGuuuAuuccGAAdTsdT-3'; antisense 5'-UUCGGAAuAAACUGUGUUCdTsdT-3'; as printed in the source, key not given here) | < 0.005 |
| XD-09615: siRNA targeting CD84 (sense 5'-ggAAcuGGGuAuAauccAAdTsdT-3'; antisense 5'-UUGGAUuAuACCcAGUUCCdTsdT-3'; as printed in the source, key not given here) | 0.048 |
| XD-09616: siRNA targeting CD84 (sense 5'-gcAccAAcuAccAuuAGcAdTsdT-3'; antisense 5'-AGCuAAUGGuAGUUGGUGCdTsdT-3'; RNA with 2'-O-methyl and phosphorothioate modifications, case key not given here, as printed in the source, key not given here) | 0.067 |
| XD-09617: siRNA targeting CD84 (sense 5'-cacuAcAGuuAAcgcuGAAdTsdT-3'; antisense 5'-UUcAGCGUuAACUGuAGUGdTsdT-3'; as printed in the source, key not given here) | 0.01 |
| XD-09618: siRNA targeting CD84 (sense 5'-gguAucAGGAAucaAAAuudTsdT-3'; antisense 5'-AAUUUUGAUUCCUGAuACCdTsdT-3'; as printed in the source, key not given here) | < 0.005 |
| XD-09619: siRNA targeting CD84 (sense 5'-ccuuAcAGcAuAAcuAAuudTsdT-3'; antisense 5'-AAUuAGUuAUGCUGuAAGGdTsdT-3'; RNA with 2'-O-methyl and phosphorothioate modifications, case key not given here, as printed in the source, key not given here) | < 0.005 |
